124 compounds from a melting point compilation (Tetko et al.) can be followed below.

Molecules are shown by their SMILES.

Take `COC(=O)c1ccc(N)s1`: the melting point – broadly, the temperature, or range, at which the solid turns liquid – lay within 115 to 117 °C.

Consider `Nc1nnn(Cc2ccccc2)n1`, for which the melting point was 183 to 185 °C.

Take `Cc1ccc(S(=O)(=O)NCC(=O)O)cc1C`: the melting point is 123 to 125 °C.

The compound `O=C1C=CC(=O)N1c1cccc(O)c1` displayed a melting point of 113 to 115 °C.

`Clc1nnc(-c2ccccn2)s1`: the melting point lay in the range of 105 to 107 °C.

The compound `O=C(O)CCc1ccc([N+](=O)[O-])cn1` gave a melting point of 135 to 137 °C.

Take `O=C(O)c1ccn(-c2ccccc2Cl)n1`: the melting point lay in the range of 187 to 189 °C.

As for `COc1ncc(C)cc1N`, the melting point was in the range of 77 to 79 °C.

Compound `Cn1cc(Br)cc1C(=O)NN` had a melting point of 169 to 171 °C.

`O=C(CCl)c1ccc(C2CCCCC2)cc1`: the melting point fell in the range of 182 to 187 °C.

As to `CNC(=O)c1cccc(N)c1`, the melting point was in the range of 122 to 124 °C.

As for `COCCNS(=O)(=O)c1ccc(Cl)c(C(=O)O)c1`, the melting point was in the range of 142 to 144 °C.

In turn, `O=C1OCCc2cc3c(=O)[nH]c(=O)[nH]c3nc21` registered a melting point of 380 to 382 °C.

Regarding `Cc1ccc([N+](=O)[O-])c(C)c1N`, the melting point fell in the range of 80 to 82 °C.

As to `c1ncn(C2CCNCC2)n1`, the melting point was in the range of 97 to 99 °C.

In turn, `CC(Cl)C(=O)N1CCc2ccccc21` (centres undefined) yielded a melting point of 106 to 108 °C.

With `OCc1cn(-c2ccccc2)nc1-c1ccccc1`, the melting point lay within 91 to 93 °C.

`COc1cc(C=O)c([N+](=O)[O-])cc1OCC(=O)O` returned a melting point of 179 to 181 °C.

Compound `O=Cc1c(Cl)nc2ccccn12` registered a melting point of 124 to 126 °C.

With `Nc1ccnc(OCCO)c1`, the melting point was 99 to 101 °C.

Consider `NCc1ccc(-c2ccc3c(c2)CCCO3)cc1`, for which the melting point lay in the range of 89 to 91 °C.

Take `Cc1c(Br)cccc1CO`: the melting point is 89 to 91 °C.

`O=C(O)CC(O)(c1ccccc1)C(F)(F)F` (centres undefined) came in with a melting point of 133 to 135 °C.

Compound `Nc1nnc(-c2cc(F)cc(Br)c2)s1` returned a melting point of 192 to 194 °C.

`COc1ccc(N)c(C(=O)NC2CC2)c1` displayed a melting point of 137 to 139 °C.

The compound `OCCOc1ccccc1C(F)(F)F` came in with a melting point of 74 to 76 °C.

`c1ccc(N2CCN(CC3CCCNC3)CC2)nc1` (centres undefined) returned a melting point of 73 to 75 °C.

As to `COc1ccc(-c2[nH]c3ccc(F)cc3c2CCC(=O)O)cc1`, the melting point was 134 to 138 °C.

As for `NS(=O)(=O)c1ccc(OCCBr)cc1`, the melting point lay in the range of 111 to 113 °C.

`COc1ccc(CCC(=O)O)cc1F` had a melting point of 111 to 113 °C.

In turn, `Cc1cc(Cl)c(C#N)c(C)n1` returned a melting point of 65 to 67 °C.

Consider `CC(=O)Nc1ccc(N)c(Br)c1`, for which the melting point was in the range of 79 to 81 °C.

For the compound `O=C(O)c1ccn(-c2cccc(C(F)(F)F)c2)n1`, the melting point lay in the range of 155 to 157 °C.

`O=Cc1c(Cl)cccc1N1CCOCC1`: the melting point lay in the range of 74 to 76 °C.

Take `O=C(O)CNC(=O)c1ccc2c(c1)OCO2`: the melting point is 158 to 160 °C.

`Clc1ccc(SC2CCNCC2)cc1`: the melting point is 41 to 43 °C.

`CC(C)Oc1ccc([N+](=O)[O-])cc1CBr` showed a melting point of 69 to 71 °C.

As for `O=C(O)c1cn(Cc2ccccc2)nc1-c1ccc(Cl)cc1`, the melting point was 162 to 165 °C.

On to `O=C1NC(=O)c2cc(F)ccc21`, for which the melting point lay in the range of 183 to 185 °C.

`Cc1cc(N)ccc1Oc1cccnc1` returned a melting point of 90 to 92 °C.

Take `NC(=O)CCc1ccc(C(=O)CCl)cc1`: the melting point was in the range of 139 to 141 °C.

As for `CC(Br)C(=O)c1ccc(Cl)cc1` (centres undefined), the melting point was 68 to 70 °C.

`Nc1ccc(Cl)cc1C(=O)N1CCCC1` showed a melting point of 139 to 141 °C.

As to `NC(CCc1ccccc1)=NO`, the melting point was 40 to 42 °C.

In turn, `O=C(O)c1cccc(NC(=O)c2ccc3[nH]cnc3c2)c1` gave a melting point of 305 to 307 °C.

`Nc1nnc(-c2ccc(Br)cc2F)s1` yielded a melting point of 194 to 196 °C.

Take `NC(N=O)=C1NC=Cc2ccccc21`: the melting point is 125 to 127 °C.

In the case of `O=C(O)c1cc(OCc2ccccc2)ccn1`, the melting point is 159 to 161 °C.

As to `Cc1c[nH]c(=O)n1-c1ccccc1Cl`, the melting point was in the range of 199 to 201 °C.

In turn, `NC(=O)N1CCC(N)CC1` registered a melting point of 64 to 66 °C.

For `O=c1[nH]c(Cl)nc2c1cnn2-c1ccccc1`, the melting point is 276 to 278 °C.

In turn, `O=C1C=C2NCCC=C2O1` had a melting point of 109 to 111 °C.

Regarding `COc1ccccc1NCC(=O)O`, the melting point fell in the range of 159 to 161 °C.

As for `Cc1cc(Cl)c(C(=O)O)cc1C`, the melting point is 180 to 182 °C.

Turning to `NCc1cc2c(cc1OC(F)F)OCO2`, the melting point was in the range of 39 to 41 °C.

For `Cc1cc2ncn(C(C)C(N)=S)c2cc1C` (centres undefined), the melting point lay within 204 to 206 °C.

As for `CN(CCC#N)c1ccc(C=O)cc1`, the melting point lay in the range of 70 to 74 °C.

`Nc1ccc(S(=O)(=O)NC2CC2)cn1` yielded a melting point of 169 to 171 °C.

The compound `CCOC(=O)c1c(C)noc1N` returned a melting point of 133 to 135 °C.

`CCOC(=O)CNc1ccc(F)cc1` had a melting point of 73 to 77 °C.

Compound `CNC(=O)NCCC(=O)O` registered a melting point of 129 to 131 °C.

With `CCOc1ccc(-n2c(C)cc(C(=O)CCl)c2C)cc1`, the melting point is 118 to 122 °C.

`CCOc1cc(N2CCC(O)CC2)ccc1[N+](=O)[O-]` displayed a melting point of 109 to 111 °C.

The compound `Nc1cc(F)c(Oc2ccc(F)cc2)cc1C(=O)O` yielded a melting point of 194 to 196 °C.

The compound `Cc1nn(-c2ccc(F)cc2)nc1C(=O)O` gave a melting point of 167 to 169 °C.

As to `CC1(C(=O)O)CCCN1C(=O)OCc1ccccc1` (centres undefined), the melting point was in the range of 119 to 121 °C.

For `CC(c1ccncc1)n1nccc1N` (centres undefined), the melting point was 279 to 281 °C.

As for `Clc1cncc(N2CCOCC2)n1`, the melting point was 114 to 116 °C.

In turn, `CNc1ncnc2ccccc12` returned a melting point of 179 to 181 °C.

`O=C(Nc1cccnc1)OCC(F)(F)F` gave a melting point of 140 to 142 °C.

In turn, `O=C(O)c1ccc(N2CCOC2=O)cc1` yielded a melting point of 271 to 273 °C.

Consider `CNS(=O)(=O)c1ccc(I)cc1`, for which the melting point fell in the range of 94 to 96 °C.

As for `CN(CC(=O)O)C(=O)Nc1cccc([N+](=O)[O-])c1`, the melting point is 157 to 159 °C.

As to `Cc1nccc(C(=O)O)n1`, the melting point lay in the range of 206 to 208 °C.

For `CN(C)CCC(=O)O`, the melting point lay in the range of 130 to 132 °C.

Consider `O=C(O)CS(=O)(=O)c1ccc([N+](=O)[O-])cc1`, for which the melting point fell in the range of 162 to 164 °C.

Regarding `Nc1cc(C(=O)O)cnc1Cl`, the melting point was 199 to 201 °C.

In turn, `O=S1(=O)CCNC(c2ccccc2)C1` (centres undefined) registered a melting point of 124 to 126 °C.

Compound `COc1ccc(O)c(N)c1` had a melting point of 135 to 140 °C.

As to `Cc1ccc([N+](=O)[O-])cc1C(C)Cl` (centres undefined), the melting point was in the range of 44 to 46 °C.

Compound `Cc1ccc(-c2nc(C(=O)O)cs2)n1C` yielded a melting point of 139 to 141 °C.

With `Cc1n[nH]c(C2CNCCO2)n1` (centres undefined), the melting point is 104 to 106 °C.

Regarding `NC(=O)c1ccc(CO)c(F)c1`, the melting point is 103 to 105 °C.

The compound `NC(=O)c1nnc(O)nc1O` displayed a melting point of 294 to 296 °C.

Compound `Nc1cccc(N2CCN(CCc3ccccc3)CC2)c1` gave a melting point of 96 to 98 °C.

`O=C(O)[C@@H]1C[C@H]1c1cccnc1` (relative stereo) displayed a melting point of 124 to 126 °C.

For the compound `O=C(CCl)NCCc1cccc2ccccc12`, the melting point lay within 104 to 106 °C.

`Cc1cccc2sc(NC(=O)OCC(F)(F)F)nc12` gave a melting point of 220 to 222 °C.

On to `O=S(=O)(Cl)c1ccccc1-c1ccno1`, for which the melting point is 74 to 76 °C.

On to `O=C(c1cccc(F)c1)c1ccccn1`, for which the melting point was in the range of 37 to 39 °C.

For `CCOc1cc(C(=O)O)cc(Cl)c1O`, the melting point lay in the range of 204 to 206 °C.

`O=C(O)c1cnn(-c2ccccc2)n1` gave a melting point of 183 to 185 °C.

For the compound `COC(=O)c1c[nH]cc1-c1ccc([N+](=O)[O-])cc1`, the melting point is 244 to 246 °C.

Turning to `CCN(C(C)=O)c1nc(C=O)cs1`, the melting point lay in the range of 121 to 123 °C.

`O=C(O)c1cccnc1Nc1ccccc1F` returned a melting point of 215 to 217 °C.

For `COc1cc(C=O)c(-c2ccccc2)cc1OC`, the melting point is 133 to 135 °C.

Regarding `Cc1nc(C)c(S(N)(=O)=O)s1`, the melting point was in the range of 142 to 144 °C.

Turning to `Cc1ccc(CC(=O)O)cc1C`, the melting point was 96 to 98 °C.

`CC(Cl)C(=O)NC1CCN(Cc2ccccc2)CC1` (centres undefined) came in with a melting point of 119 to 121 °C.

`O=C(O)Cc1csc(-c2ccc(F)cc2)n1` returned a melting point of 129 to 131 °C.

As to `O=C(O)c1cn(CC(=O)N2CCCC2)nn1`, the melting point was in the range of 208 to 210 °C.

`Cc1ccc(-c2nnc(N)o2)cc1F` displayed a melting point of 264 to 266 °C.

In turn, `O=C(Nc1ccccn1)c1ccc(Br)cc1` had a melting point of 134 to 136 °C.

`Cc1nnc(CCl)s1` returned a melting point of 76 to 78 °C.

`NS(=O)(=O)c1ccc(Cl)nc1Cl` came in with a melting point of 189 to 191 °C.

`N#CC1(NC(=O)c2ccccc2)CCC1` displayed a melting point of 126 to 128 °C.

For `COc1ccc(C(=O)C2CCOCC2)cc1`, the melting point is 103 to 105 °C.

The compound `Cc1cccc(NC(N)=S)c1` registered a melting point of 110 to 112 °C.

`O=C(O)c1c[nH]c2ccc(I)cc2c1=O` came in with a melting point of 286 to 288 °C.

In the case of `Cc1ccsc1C(N)=S`, the melting point is 117 to 119 °C.

`CCS(=O)(=O)c1ccccc1Oc1ccc(N)cc1` registered a melting point of 124 to 126 °C.

For `CN(C)c1ccc(C(=O)O)nn1`, the melting point is 167 to 169 °C.

As for `CC(C)N1CCC(N2CCNCC2)CC1`, the melting point was 46 to 48 °C.

In turn, `CC(=O)NCCC(N)=S` displayed a melting point of 99 to 101 °C.

In turn, `O=S(=O)(c1nnc[nH]1)N1CCNCC1` returned a melting point of 240 to 242 °C.

In turn, `CC(C)C(N)c1nc(-c2nnc[nH]2)no1` (centres undefined) gave a melting point of 210 to 212 °C.

With `Nc1ccnc(N2CCCC2)n1`, the melting point was in the range of 218 to 220 °C.

Take `Cc1cc(C(N)=O)c2ccccc2n1`: the melting point lay within 246 to 248 °C.

`CCOC(=O)Nc1ccc(Br)cc1` had a melting point of 79 to 81 °C.

Compound `Cc1ccc(C)n1-c1ccc(CN)cc1` showed a melting point of 61 to 63 °C.

Regarding `Cc1ccc2nc(-c3ccc(N4C(=O)C=CC4=O)cc3)sc2c1`, the melting point lay within 259 to 261 °C.

As for `CCN(CC)CCn1c(N)nc2ccccc21`, the melting point lay in the range of 129 to 131 °C.

Regarding `COc1cc(C(C)=O)ccc1S`, the melting point fell in the range of 58 to 60 °C.

In turn, `Nc1c(Br)ccc(Br)c1C(=O)O` yielded a melting point of 145 to 147 °C.
